Measured values taken from BindingDB's records for doi:10.1021/cb4002602 (National University of Singapore, 2013).

Target: Protein disulfide-isomerase (Bos taurus) (UniProt P05307)
Test: The assay was carried out in 384-well plates according to literature procedures [46]. Each well contained 100mM sodium phosphate and 0.2mM EDTA pH 7.0. 10ng PDI was pre-incubated with various concentration of probes (4% DMSO) in 20uL buffer for 30 min at 37 degrees Celsius, followed by the addition of insulin (0.16mM final concentration) and DDT (1mM

Sequence of Protein disulfide-isomerase (Bos taurus) (P05307 whole entry, looked up): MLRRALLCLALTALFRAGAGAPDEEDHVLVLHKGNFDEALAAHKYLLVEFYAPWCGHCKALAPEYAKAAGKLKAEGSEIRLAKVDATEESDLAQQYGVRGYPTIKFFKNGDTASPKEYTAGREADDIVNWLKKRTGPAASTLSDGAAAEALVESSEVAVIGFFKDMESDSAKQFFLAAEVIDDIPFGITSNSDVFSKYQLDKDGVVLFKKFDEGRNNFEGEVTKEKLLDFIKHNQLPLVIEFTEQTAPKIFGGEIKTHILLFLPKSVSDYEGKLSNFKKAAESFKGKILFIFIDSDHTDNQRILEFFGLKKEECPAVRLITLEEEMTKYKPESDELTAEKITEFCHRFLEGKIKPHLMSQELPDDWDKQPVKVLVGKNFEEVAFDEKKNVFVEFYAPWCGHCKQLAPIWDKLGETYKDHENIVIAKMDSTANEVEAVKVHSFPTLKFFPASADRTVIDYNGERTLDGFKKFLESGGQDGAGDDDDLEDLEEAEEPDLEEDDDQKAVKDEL

| Structure (SMILES) | IC50 |
| --- | --- |
| COC(=O)C1(C)c2[nH]c3ccccc3c2CCN1C(=O)CCl (stereo not drawn) [16F16] | 74000 nM |
| C#CCNC(=O)[C@H](Cc1ccc(OS(=O)(=O)C=C)cc1)NC(=O)c1ccc(C)cc1C [PDI inhibitor P7] | 3100 nM |
| C#CCNC(=O)[C@H](Cc1ccc(OS(=O)(=O)C=C)cc1)NC(=O)c1ccc2ccccc2c1 [PDI inhibitor P8] | 2700 nM |
| C#CCNC(=O)[C@H](Cc1ccc(OS(=O)(=O)C=C)cc1)NC(=O)c1ccc(OC)cc1 [PDI inhibitor P9] | 5300 nM |
| C#CCNC(=O)[C@H](Cc1ccc(OS(=O)(=O)C=C)cc1)NC(=O)C(C)(C)CC [PDI inhibitor P12] | 3200 nM |
| C#CCNC(=O)[C@H](Cc1ccc(OS(=O)(=O)C=C)cc1)NC(=O)CCc1ccc(OC)cc1 [PDI inhibitor P17] | 3300 nM |
| C#CCNC(=O)[C@H](Cc1ccc(OS(=O)(=O)C=C)cc1)NC(=O)c1ccc(F)cc1Cl [PDI inhibitor P18] | 2800 nM |
| C#CCNC(=O)[C@H](Cc1ccc(OS(=O)(=O)C=C)cc1)NC(=O)C(Cl)CC (stereo partly drawn) [PDI inhibitor P20] | 5700 nM |
| C#CCNC(=O)[C@H](Cc1ccc(OS(=O)(=O)C=C)cc1)NC(=O)c1ccc(C)c(F)c1 [PDI inhibitor P21] | 2500 nM |
| C#CCNC(=O)[C@H](Cc1ccc(OS(=O)(=O)C=C)cc1)NC(=O)c1cc(OC)c(OC)cc1Br [PDI inhibitor P25] | 3400 nM |

The remaining lines, values ahead:

| IC50 | Structure (SMILES) |
| --- | --- |
| 1700 nM | C#CCCNC(=O)[C@H](Cc1ccc(OS(=O)(=O)C=C)cc1)NC(=O)[C@H](Cc1ccccc1)NC(=O)OC(C)(C)C [PDI inhibitor P1] |
| 1800 nM | C#CCCNC(=O)[C@H](Cc1cc(=O)oc2cc(OS(=O)(=O)C=C)ccc12)NC(=O)[C@H](Cc1ccccc1)NC(=O)OC(C)(C)C [PDI inhibitor P2] |
| 1900 nM | C#CCNC(=O)[C@H](Cc1ccc(OS(=O)(=O)C=C)cc1)NC(=O)[C@H](Cc1ccccc1)NC(=O)OC(C)(C)C [PDI inhibitor P6] |
| 2100 nM | C#CCNC(=O)[C@H](Cc1ccc(OS(=O)(=O)C=C)cc1)NC(=O)C1(c2ccccc2)CC1 [PDI inhibitor P10] |
| 1100 nM | C=CS(=O)(=O)Oc1ccc(C[C@H](NC(=O)[C@H](Cc2ccccc2)NC(=O)OC(C)(C)C)C(=O)NCCNC(=O)CCCC[C@@H]2SCC3NC(=O)NC32)cc1 (stereo partly drawn) [PDI inhibitor P11] |
| 2500 nM | C#CCNC(=O)[C@H](Cc1ccc(OS(=O)(=O)C=C)cc1)NC(=O)c1c(F)c(F)c(F)c(F)c1F [PDI inhibitor P13] |
| 1000 nM | C#CCNC(=O)[C@H](Cc1ccc(OS(=O)(=O)C=C)cc1)NC(=O)c1ccc(F)c(C(F)(F)F)c1 [PDI inhibitor P14] |
| 1100 nM | C#CCNC(=O)[C@H](Cc1ccc(OS(=O)(=O)C=C)cc1)NC(=O)c1ccc(CC)cc1 [PDI inhibitor P15] |
| 2300 nM | C#CCNC(=O)[C@H](Cc1ccc(OS(=O)(=O)C=C)cc1)NC(=O)C1(C)CCCCC1 [PDI inhibitor P16] |
| 2500 nM | C#CCNC(=O)[C@H](Cc1ccc(OS(=O)(=O)C=C)cc1)NC(=O)C1(C)CC1(Cl)Cl (stereo partly drawn) [PDI inhibitor P19] |
| 1400 nM | C#CCNC(=O)[C@H](Cc1ccc(OS(=O)(=O)C=C)cc1)NC(=O)c1cc(F)c(F)c(OC)c1F [PDI inhibitor P22] |
| 1800 nM | C#CCNC(=O)[C@H](Cc1ccc(OS(=O)(=O)C=C)cc1)NC(=O)C(=O)c1ccccc1 [PDI inhibitor P23] |
| 2200 nM | C#CCNC(=O)[C@H](Cc1ccc(OS(=O)(=O)C=C)cc1)NC(=O)CCc1ccccc1 [PDI inhibitor P24] |
